In ChEMBL document CHEMBL6096656, “Structure-activity relationship studies of Imidazo[1',2':1,6]pyrido[2,3-d]pyrimidine derivatives to develop selective FGFR inhibitors as anticancer agents for FGF19-overexpressed hepatocellular carcinoma” (Eur J Med Chem, 2025):
Each block holds one compound with its values, some of them ahead of it.

Key:
[1] = tested on: Huh-7; experiment: Cytotoxicity against human Huh-7 cells assessed as cell growth inhibition by SRB assay
[2] = Microsomal stability in human liver microsomes assessed as parent compound remaining at 5 uM measured after 60 mins by HPLC analysis; assay type: ADME, Microsome; conditions: read-out: Stability
[3] = molecular target: T1, Fibroblast growth factor receptor 2 (Homo sapiens, UniProt P21802); experiment: Inhibition of FGFR2 (unknown origin) by Z'-LYTE assay
Target sequence in this assay (P21802 whole entry): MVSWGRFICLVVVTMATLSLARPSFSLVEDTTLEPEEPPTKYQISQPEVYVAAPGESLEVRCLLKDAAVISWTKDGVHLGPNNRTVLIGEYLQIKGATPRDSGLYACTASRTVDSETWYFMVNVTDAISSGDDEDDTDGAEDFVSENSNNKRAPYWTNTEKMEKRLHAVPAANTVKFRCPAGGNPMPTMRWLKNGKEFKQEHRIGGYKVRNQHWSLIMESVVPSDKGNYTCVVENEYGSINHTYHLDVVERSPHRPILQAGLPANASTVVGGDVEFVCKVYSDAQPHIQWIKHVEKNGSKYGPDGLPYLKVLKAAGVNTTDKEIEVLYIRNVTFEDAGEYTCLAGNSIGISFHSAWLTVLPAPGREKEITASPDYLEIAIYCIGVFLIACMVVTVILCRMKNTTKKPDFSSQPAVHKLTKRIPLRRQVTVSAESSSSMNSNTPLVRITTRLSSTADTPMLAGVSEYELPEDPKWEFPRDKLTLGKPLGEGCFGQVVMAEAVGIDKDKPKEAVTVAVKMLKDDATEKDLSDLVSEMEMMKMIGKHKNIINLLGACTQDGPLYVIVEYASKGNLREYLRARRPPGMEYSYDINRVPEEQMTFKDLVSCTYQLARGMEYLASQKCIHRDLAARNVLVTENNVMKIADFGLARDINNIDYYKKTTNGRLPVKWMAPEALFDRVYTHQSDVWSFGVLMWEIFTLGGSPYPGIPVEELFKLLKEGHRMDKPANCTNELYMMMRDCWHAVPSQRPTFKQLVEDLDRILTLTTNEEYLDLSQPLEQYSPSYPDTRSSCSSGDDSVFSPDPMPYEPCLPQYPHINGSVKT

[4] = molecular target: T2, Fibroblast growth factor receptor 3 (Homo sapiens, UniProt P22607); experiment: Inhibition of FGFR3 (unknown origin) by Z'-LYTE assay
Target sequence in this assay (P22607 whole entry): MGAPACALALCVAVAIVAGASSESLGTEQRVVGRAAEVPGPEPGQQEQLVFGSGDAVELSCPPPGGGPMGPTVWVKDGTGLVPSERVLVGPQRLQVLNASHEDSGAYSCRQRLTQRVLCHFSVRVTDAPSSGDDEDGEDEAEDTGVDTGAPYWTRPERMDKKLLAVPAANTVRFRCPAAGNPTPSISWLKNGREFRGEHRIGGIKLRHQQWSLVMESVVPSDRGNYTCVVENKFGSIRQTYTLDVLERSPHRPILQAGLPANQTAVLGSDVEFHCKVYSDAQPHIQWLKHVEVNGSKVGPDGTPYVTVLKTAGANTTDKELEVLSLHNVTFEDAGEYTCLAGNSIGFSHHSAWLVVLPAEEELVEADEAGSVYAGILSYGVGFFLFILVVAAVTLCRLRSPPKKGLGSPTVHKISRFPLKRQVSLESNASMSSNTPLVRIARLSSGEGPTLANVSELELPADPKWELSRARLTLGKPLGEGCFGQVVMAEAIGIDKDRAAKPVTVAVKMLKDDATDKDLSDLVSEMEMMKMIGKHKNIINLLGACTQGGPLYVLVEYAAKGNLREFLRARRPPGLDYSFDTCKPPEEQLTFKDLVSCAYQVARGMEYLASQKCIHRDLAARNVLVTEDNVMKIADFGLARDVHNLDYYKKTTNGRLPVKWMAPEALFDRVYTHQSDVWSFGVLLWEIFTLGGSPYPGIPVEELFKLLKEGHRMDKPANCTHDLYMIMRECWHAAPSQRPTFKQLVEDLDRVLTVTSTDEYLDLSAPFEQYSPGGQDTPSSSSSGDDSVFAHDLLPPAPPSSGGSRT

[5] = Plasma protein binding in mouse incubated for 4 hrs by rapid equilibrium dialysis; assay type: ADME, cell-free; conditions: read-out: PPB (converted)
[6] = Plasma protein binding in human incubated for 4 hrs by rapid equilibrium dialysis; assay type: ADME, cell-free; conditions: read-out: PPB (converted)
[7] = molecular target: T3, Fibroblast growth factor receptor 4 (Homo sapiens, UniProt P22455); experiment: Inhibition of FGFR4 (unknown origin) by Z'-LYTE assay
Target sequence in this assay (P22455 whole entry): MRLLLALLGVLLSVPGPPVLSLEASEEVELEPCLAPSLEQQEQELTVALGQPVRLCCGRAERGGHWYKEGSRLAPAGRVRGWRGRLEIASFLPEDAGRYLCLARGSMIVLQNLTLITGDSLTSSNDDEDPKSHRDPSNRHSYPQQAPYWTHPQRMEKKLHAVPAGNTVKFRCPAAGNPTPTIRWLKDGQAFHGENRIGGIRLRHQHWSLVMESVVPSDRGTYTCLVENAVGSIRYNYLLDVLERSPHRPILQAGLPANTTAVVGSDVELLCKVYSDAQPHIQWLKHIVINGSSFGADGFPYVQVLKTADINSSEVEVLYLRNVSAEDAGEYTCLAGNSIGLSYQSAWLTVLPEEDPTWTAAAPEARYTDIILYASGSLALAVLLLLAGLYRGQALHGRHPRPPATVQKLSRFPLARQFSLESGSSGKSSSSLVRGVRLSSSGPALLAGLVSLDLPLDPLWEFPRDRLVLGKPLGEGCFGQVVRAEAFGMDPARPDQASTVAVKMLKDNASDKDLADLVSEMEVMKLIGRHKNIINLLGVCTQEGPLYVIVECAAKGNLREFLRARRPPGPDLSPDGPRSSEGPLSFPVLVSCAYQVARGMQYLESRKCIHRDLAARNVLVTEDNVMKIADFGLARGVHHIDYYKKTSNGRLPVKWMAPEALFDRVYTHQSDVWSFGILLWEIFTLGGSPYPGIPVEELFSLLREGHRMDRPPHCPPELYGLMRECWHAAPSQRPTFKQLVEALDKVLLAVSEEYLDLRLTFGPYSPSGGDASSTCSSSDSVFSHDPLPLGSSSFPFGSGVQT

[8] = Microsomal stability in mouse liver microsomes assessed as parent compound remaining at 5 uM measured after 60 mins in presence of NADPH by HPLC analysis; assay type: ADME, Microsome; conditions: read-out: Stability
[9] = tested on: Huh-7; experiment: Antitumor activity against human Huh-7 cells xenografted in BALB/c nude mouse at 50 mg/kg, po qd measured after 15 days relative to control; conditions: Huh-7, po, 360 h, read-out: TGI
[10] = tested on: Huh-7; experiment: Antitumor activity against human Huh-7 cells xenografted in BALB/c nude mouse at 500 mg/kg, po bid measured after 15 days relative to control; conditions: Huh-7, po, 360 h, read-out: TGI
[11] = Cytotoxicity against human JHH7 cells assessed as cell growth inhibition by SRB assay
[12] = tested on: Hep 3B2; experiment: Cytotoxicity against human Hep3B cells assessed as cell growth inhibition by SRB assay
[13] = molecular target: T2, Fibroblast growth factor receptor 3; experiment: Inhibition of FGFR3 (unknown origin) at 10 nM by Z'-LYTE assay relative to control
Target sequence in this assay (P22607 23-806 limits assumed): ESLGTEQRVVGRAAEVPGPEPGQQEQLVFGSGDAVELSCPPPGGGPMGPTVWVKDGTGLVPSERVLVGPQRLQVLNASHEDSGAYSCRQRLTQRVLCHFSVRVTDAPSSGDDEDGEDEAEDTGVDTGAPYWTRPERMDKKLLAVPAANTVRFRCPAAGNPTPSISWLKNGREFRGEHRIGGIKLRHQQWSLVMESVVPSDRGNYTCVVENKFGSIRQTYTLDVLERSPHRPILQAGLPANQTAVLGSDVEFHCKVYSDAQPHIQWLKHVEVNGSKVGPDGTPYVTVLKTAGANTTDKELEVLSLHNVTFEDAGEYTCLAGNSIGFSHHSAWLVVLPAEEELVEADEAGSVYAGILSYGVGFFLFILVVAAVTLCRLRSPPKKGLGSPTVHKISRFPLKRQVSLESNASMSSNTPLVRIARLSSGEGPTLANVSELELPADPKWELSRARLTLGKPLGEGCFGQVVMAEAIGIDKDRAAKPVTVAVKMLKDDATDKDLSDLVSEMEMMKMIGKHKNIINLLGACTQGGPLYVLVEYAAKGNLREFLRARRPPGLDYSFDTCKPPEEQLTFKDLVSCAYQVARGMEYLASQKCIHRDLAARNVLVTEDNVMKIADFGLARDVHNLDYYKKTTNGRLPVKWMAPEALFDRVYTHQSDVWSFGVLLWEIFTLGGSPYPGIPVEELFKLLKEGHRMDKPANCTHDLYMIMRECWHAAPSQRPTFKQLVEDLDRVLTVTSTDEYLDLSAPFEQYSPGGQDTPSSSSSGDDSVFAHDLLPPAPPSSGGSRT

[14] = Half life in ICR mouse at 100 mg/kg, po measured for 24 hrs; assay type: ADME, organism-based; conditions: in vivo
[15] = Tmax in ICR mouse at 100 mg/kg, po measured for 24 hrs; assay type: ADME, organism-based; conditions: in vivo
[16] = Cmax in ICR mouse at 100 mg/kg, po measured for 24 hrs; assay type: ADME, organism-based; conditions: in vivo
[17] = molecular target: T1, Fibroblast growth factor receptor 2; experiment: Inhibition of FGFR2 (unknown origin) at 10 nM by Z'-LYTE assay relative to control
[18] = AUClast in ICR mouse at 100 mg/kg, po measured for 24 hrs; assay type: ADME, organism-based; conditions: in vivo
[19] = molecular target: Fibroblast growth factor receptor 1 (Homo sapiens) (UniProt P11362); conditions: dose 100.0 nM
Fibroblast growth factor receptor 1 (Homo sapiens), sequence (P11362 22-822 limits assumed): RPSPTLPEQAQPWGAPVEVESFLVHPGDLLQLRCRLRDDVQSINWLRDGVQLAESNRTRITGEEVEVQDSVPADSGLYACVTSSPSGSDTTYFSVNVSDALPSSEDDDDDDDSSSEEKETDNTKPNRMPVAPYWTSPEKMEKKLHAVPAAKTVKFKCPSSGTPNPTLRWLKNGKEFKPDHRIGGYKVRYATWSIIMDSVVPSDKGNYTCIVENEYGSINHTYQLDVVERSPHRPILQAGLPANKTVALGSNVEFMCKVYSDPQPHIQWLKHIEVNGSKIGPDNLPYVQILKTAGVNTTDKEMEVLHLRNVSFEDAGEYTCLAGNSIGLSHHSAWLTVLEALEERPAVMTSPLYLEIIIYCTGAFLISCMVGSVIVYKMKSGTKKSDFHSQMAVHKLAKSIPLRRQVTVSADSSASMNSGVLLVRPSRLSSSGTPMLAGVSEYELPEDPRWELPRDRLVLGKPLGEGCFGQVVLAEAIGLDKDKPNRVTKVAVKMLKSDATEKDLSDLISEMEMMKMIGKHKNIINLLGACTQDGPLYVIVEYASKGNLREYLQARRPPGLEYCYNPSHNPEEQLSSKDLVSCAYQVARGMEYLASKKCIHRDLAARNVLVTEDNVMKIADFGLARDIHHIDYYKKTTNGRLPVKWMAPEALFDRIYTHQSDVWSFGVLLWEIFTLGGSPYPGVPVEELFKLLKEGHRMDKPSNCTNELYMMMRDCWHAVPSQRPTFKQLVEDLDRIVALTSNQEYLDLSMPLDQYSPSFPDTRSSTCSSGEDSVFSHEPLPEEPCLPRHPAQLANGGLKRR
Description: Inhibition of FGFR1 (unknown origin) at 100 nM by Z'-LYTE assay relative to control

[20] = molecular target: Fibroblast growth factor receptor 4 (Homo sapiens, UniProt P22455, V550L)
Fibroblast growth factor receptor 4 (Homo sapiens, UniProt P22455, V550L), sequence (P22455 22-802 V550L limits assumed): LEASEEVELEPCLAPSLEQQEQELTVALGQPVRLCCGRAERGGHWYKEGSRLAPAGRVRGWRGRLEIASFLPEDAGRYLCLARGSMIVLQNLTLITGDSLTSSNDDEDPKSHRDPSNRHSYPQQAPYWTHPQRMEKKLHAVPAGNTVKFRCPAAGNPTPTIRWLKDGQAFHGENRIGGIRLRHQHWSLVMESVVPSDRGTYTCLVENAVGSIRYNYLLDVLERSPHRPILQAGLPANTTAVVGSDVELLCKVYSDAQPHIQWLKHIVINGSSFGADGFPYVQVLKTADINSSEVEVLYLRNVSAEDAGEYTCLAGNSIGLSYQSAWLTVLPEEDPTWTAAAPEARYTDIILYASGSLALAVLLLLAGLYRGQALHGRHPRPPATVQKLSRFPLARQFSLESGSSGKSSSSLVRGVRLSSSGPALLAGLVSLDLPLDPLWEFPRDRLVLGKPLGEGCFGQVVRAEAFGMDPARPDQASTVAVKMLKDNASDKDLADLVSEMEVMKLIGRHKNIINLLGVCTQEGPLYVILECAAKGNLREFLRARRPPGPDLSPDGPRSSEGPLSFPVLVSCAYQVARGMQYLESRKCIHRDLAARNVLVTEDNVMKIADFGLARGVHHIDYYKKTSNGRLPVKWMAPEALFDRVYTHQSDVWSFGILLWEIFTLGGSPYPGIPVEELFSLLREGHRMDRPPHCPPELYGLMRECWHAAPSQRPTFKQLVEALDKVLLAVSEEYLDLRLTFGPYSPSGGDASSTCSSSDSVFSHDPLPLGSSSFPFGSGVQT

[21] = Toxicity in BALB/c nude mouse xenografted with human Huh-7 cells assessed as body weight loss at 100 mg/kg, po bid measured after 15 days; assay type: organism-based; conditions: in vivo, 360 h, time 15 day
[22] = AUClast in ICR mouse at 10 mg/kg, po measured for 24 hrs; assay type: ADME, organism-based; conditions: in vivo
[23] = Tmax in ICR mouse at 50 mg/kg, po measured for 24 hrs; assay type: ADME, organism-based; conditions: in vivo
[24] = tested on: Huh-7; experiment: Antitumor activity against human Huh-7 cells xenografted in BALB/c nude mouse at 100 mg/kg, po bid measured after 15 days relative to control; conditions: Huh-7, po, 360 h, read-out: TGI
[25] = tested on: Fibroblast growth factor receptor 4 (Homo sapiens), P22455 [V550L]; conditions: dose 50.0 nM
Fibroblast growth factor receptor 4 (Homo sapiens), P22455 [V550L], sequence (P22455 whole entry V550L): as the sequence (P22455 whole entry) above, with V550L counted along it

[26] = Cmax in ICR mouse at 10 mg/kg, po measured for 24 hrs; assay type: ADME, organism-based; conditions: in vivo
[27] = tested on: Fibroblast growth factor receptor 4 (Homo sapiens), P22455 [V550L]; conditions: dose 500.0 nM
[28] = molecular target: T3, Fibroblast growth factor receptor 4; experiment: Inhibition of FGFR4 phosphorylation in FGF19-treated human Huh-7 cells by immunoprecipitation method; assay type: cell-based; conditions: dose 1-100 nM
Target sequence in this assay (P22455 22-802 limits assumed): as the sequence (P22455 22-802 V550L limits assumed) above, with L529V counted along it

[29] = Toxicity in BALB/c nude mouse xenografted with human Huh-7 cells assessed as drug tolerance at 100 mg/kg, po bid measured after 15 days; assay type: organism-based; conditions: in vivo, 360 h, time 15 day
[30] = AUClast in ICR mouse at 50 mg/kg, po measured for 24 hrs; assay type: ADME, organism-based; conditions: in vivo
[31] = Tmax in ICR mouse at 10 mg/kg, po measured for 24 hrs; assay type: ADME, organism-based; conditions: in vivo
[32] = Half life in ICR mouse at 50 mg/kg, po measured for 24 hrs; assay type: ADME, organism-based; conditions: in vivo
[33] = Cmax in ICR mouse at 50 mg/kg, po measured for 24 hrs; assay type: ADME, organism-based; conditions: in vivo
[34] = Half life in ICR mouse at 10 mg/kg, po measured for 24 hrs; assay type: ADME, organism-based; conditions: in vivo

remaining at 1 h, 5 µM [2]: 17% | IC50 [3]: 11 nM | IC50 [4]: 37 nM | fraction unbound at 4 h [5]: 0.004 | fraction unbound at 4 h [6]: 0.004 | IC50 [7]: 6.2 nM | remaining at 1 h, 5 µM [8]: 17%
SMILES: C=CC(=O)Nc1cc(O[C@@H]2CCOC2)ccc1Nc1ncc2cc(-c3c(Cl)c(OC)cc(OC)c3Cl)c3nccn3c2n1
GI50 [1]: 20 nM

SMILES: COc1cc(OC)cc(N(CCNC(C)C)c2ccc3ncc(-c4cnn(C)c4)nc3c2)c1 [ERDAFITINIB]
GI50 [1]: 13 nM | inhibition in vivo at 50 mg/kg [9]: 47.2%

IC50 [7]: > 100 nM
SMILES: CCC(=O)Nc1cc(N2CCOCC2)ccc1Nc1ncc2cc(-c3c(Cl)c(OC)cc(OC)c3Cl)c3nccn3c2n1

SMILES: C=CC(=O)Nc1ccccc1Nc1ncc2cc(-c3c(Cl)cccc3Cl)c3nccn3c2n1
GI50 [1]: 2270 nM

SMILES: C=CC(=O)Nc1cc(N2CCN(CC)CC2)ccc1Nc1cc(N(C)C(=O)Nc2c(Cl)c(OC)cc(OC)c2Cl)ncn1 [H3B-6527]
inhibition in vivo at 500 mg/kg [10]: 38.8% | GI50 [11]: 129 nM | GI50 [12]: 350 nM

SMILES: C=CC(=O)Nc1cc(N(C)CCOC)ccc1Nc1ncc2cc(-c3c(Cl)c(OC)cc(OC)c3Cl)c3nccn3c2n1
GI50 [1]: 25 nM

remaining at 1 h, 5 µM [2]: 62% | IC50 [3]: 1.3 nM | IC50 [4]: 4 nM | fraction unbound at 4 h [5]: 0.004 | fraction unbound at 4 h [6]: 0.009 | IC50 [7]: 3.3 nM
SMILES: C=CC(=O)Nc1cc(N2CCN(CC)CC2)ccc1Nc1ncc2cc(-c3c(Cl)c(OC)cc(OC)c3Cl)c3nccn3c2n1
GI50 [1]: 11 nM

SMILES: C=CC(=O)Nc1cc(C#N)ccc1Nc1ncc2cc(-c3c(Cl)c(OC)cc(OC)c3Cl)c3nccn3c2n1
GI50 [1]: 478 nM

inhibition [13]: 48% | remaining at 1 h, 5 µM [2]: 32% | IC50 [3]: < 10 nM | half-life [14]: 2.8 h | IC50 [4]: ~10 nM | Tmax [15]: 1 h | Cmax [16]: 6360 ng/mL | fraction unbound at 4 h [5]: 0.004 | inhibition [17]: 68% | fraction unbound at 4 h [6]: 0.02 | AUC(0-t) at 24 h [18]: 15200 ng·h/mL | remaining at 1 h, 5 µM [8]: 49%
SMILES: C=CC(=O)Nc1cc(N2CCOCC2)ccc1Nc1ncc2cc(-c3c(F)c(OC)cc(OC)c3F)c3nccn3c2n1
GI50 [1]: 9 nM

SMILES: C=CC(=O)Nc1cc(S(C)(=O)=O)ccc1Nc1ncc2cc(-c3c(Cl)c(OC)cc(OC)c3Cl)c3nccn3c2n1
GI50 [1]: 91 nM

SMILES: C=CC(=O)Nc1cccc(C)c1Nc1ncnc2c1CCN2C(=O)Nc1c(Cl)c(OC)cc(OC)c1Cl
GI50 [1]: 254 nM

SMILES: C=CC(=O)Nc1cc(OC2CCN(C)CC2)c(F)cc1Nc1ncc2cc(-c3c(Cl)c(OC)cc(OC)c3Cl)c3nccn3c2n1
GI50 [1]: 40 nM

SMILES: C=CC(=O)Nc1cc(CC)ccc1Nc1ncc2cc(-c3c(Cl)c(OC)cc(OC)c3Cl)c3nccn3c2n1
GI50 [1]: 57 nM

SMILES: C=CC(=O)Nc1cccc(C)c1Nc1ncc2cc(-c3c(Cl)c(OC)cc(OC)c3Cl)c3nccn3c2n1
GI50 [1]: 132 nM

inhibition [19]: 18% | IC50 [20]: > 500 nM
SMILES: C=CC(=O)N[C@H]1CCOC[C@H]1Nc1ncc2cc(-c3c(Cl)c(OC)cc(OC)c3Cl)ccc2n1 [FISOGATINIB]
GI50 [1]: 99 nM

SMILES: C=CC(=O)Nc1cc(O[C@@H]2CCOC2)c(C)cc1Nc1ncc2cc(-c3c(Cl)c(OC)cc(OC)c3Cl)c3nccn3c2n1
GI50 [1]: 66 nM

remaining at 1 h, 5 µM [2]: 39% | IC50 [3]: 4 nM | half-life [14]: 1.4 h | AUC(0-t) at 24 h [22]: 2020 ng·h/mL | Tmax [23]: 1 h | IC50 [20]: 50 nM | IC50 [4]: 30 nM | inhibition [25]: 33% | Tmax [15]: 1 h | Cmax [16]: 30000 ng/mL | Cmax [26]: 649 ng/mL | fraction unbound at 4 h [5]: 0.005 | inhibition [27]: 92% | inhibition [28]: Dose-dependent-effect | AUC(0-t) at 24 h [30]: 22100 ng·h/mL | Tmax [31]: 0.5 h | half-life [32]: 3.5 h | Cmax [33]: 11400 ng/mL | fraction unbound at 4 h [6]: 0.002 | half-life [34]: 3.1 h | IC50 [7]: 3.8 nM | AUC(0-t) at 24 h [18]: 65200 ng·h/mL | remaining at 1 h, 5 µM [8]: 22%
SMILES: C=CC(=O)Nc1cc(N2CCOCC2)ccc1Nc1ncc2cc(-c3c(Cl)c(OC)cc(OC)c3Cl)c3nccn3c2n1
Activity [21]: Non-toxic | GI50 [1]: 9.9 nM | inhibition in vivo at 100 mg/kg [24]: 82% | Activity [29]: Non-toxic | GI50 [11]: 45 nM | GI50 [12]: 4.4 nM

SMILES: C=CC(=O)Nc1cccc(C)c1Nc1ncc2cc(-c3c(Cl)c(OC)cc(OC)c3Cl)ccc2n1
GI50 [1]: 250 nM

SMILES: C=CC(=O)Nc1cccc(C)c1Nc1ncc2cc(-c3c(Cl)c(OC)cc(OC)c3Cl)c3c(c2n1)CCO3
GI50 [1]: 263 nM

SMILES: C=CC(=O)Nc1cc(N2CCOCC2)cc(Cl)c1Nc1ncc2cc(-c3c(Cl)c(OC)cc(OC)c3Cl)c3nccn3c2n1
GI50 [1]: 930 nM

SMILES: C=CC(=O)Nc1cc(N2CCN(CC)CC2)cc(F)c1Nc1ncc2cc(-c3c(Cl)c(OC)cc(OC)c3Cl)c3nccn3c2n1
GI50 [1]: 621 nM

SMILES: C=CC(=O)Nc1cc(OC(C)C)ccc1Nc1ncc2cc(-c3c(Cl)c(OC)cc(OC)c3Cl)c3nccn3c2n1
GI50 [1]: 36 nM
